According to ChEMBL document CHEMBL5678818, “Discovery of potent SOS1 inhibitors that block RAS activation via disruption of the RAS-SOS1 interaction” (Proc Natl Acad Sci U S A, 2019):

What was measured:
[1] = test system: Tyrosine-protein kinase ABL1 (Homo sapiens), P00519 [M351T]; experiment: Inhibition of phosphorylated ABL1 M351T mutant (unknown origin) assessed as residual activity at 100 nM by KINOMEscan analysis relative to control
[2] = biological target: 5'-AMP-activated protein kinase catalytic subunit alpha-2 (Homo sapiens) (UniProt P54646); experiment: Inhibition of AMPK-alpha2 (unknown origin) assessed as residual activity at 100 nM by KINOMEscan analysis relative to control
[3] = biological target: Tyrosine-protein kinase CSK (Homo sapiens) (UniProt P41240); experiment: Inhibition of CSK (unknown origin) assessed as residual activity at 100 nM by KINOMEscan analysis relative to control
Sequence of Tyrosine-protein kinase CSK (Homo sapiens) (P41240 2-450 limits assumed): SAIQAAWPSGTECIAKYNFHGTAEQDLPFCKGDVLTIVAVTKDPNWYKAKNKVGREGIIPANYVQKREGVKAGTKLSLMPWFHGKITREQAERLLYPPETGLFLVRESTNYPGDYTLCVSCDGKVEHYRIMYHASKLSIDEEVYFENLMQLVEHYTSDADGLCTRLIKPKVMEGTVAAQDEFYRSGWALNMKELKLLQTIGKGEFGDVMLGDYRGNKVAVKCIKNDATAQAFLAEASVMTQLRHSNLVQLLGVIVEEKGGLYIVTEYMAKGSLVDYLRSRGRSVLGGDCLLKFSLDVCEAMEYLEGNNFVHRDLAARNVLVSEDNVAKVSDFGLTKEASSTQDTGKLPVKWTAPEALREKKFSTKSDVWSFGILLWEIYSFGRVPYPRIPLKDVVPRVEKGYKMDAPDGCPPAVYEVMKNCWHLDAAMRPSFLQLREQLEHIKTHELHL

[4] = biological target: Insulin receptor (Homo sapiens) (UniProt P06213); experiment: Inhibition of INSR (unknown origin) assessed as residual activity at 100 nM by KINOMEscan analysis relative to control
[5] = biological target: T1, Mitogen-activated protein kinase kinase kinase 3 (Homo sapiens) (UniProt Q99759); experiment: Inhibition of MAP3K3 (unknown origin) assessed as residual activity at 100 nM by KINOMEscan analysis relative to control
T1 sequence (whole entry): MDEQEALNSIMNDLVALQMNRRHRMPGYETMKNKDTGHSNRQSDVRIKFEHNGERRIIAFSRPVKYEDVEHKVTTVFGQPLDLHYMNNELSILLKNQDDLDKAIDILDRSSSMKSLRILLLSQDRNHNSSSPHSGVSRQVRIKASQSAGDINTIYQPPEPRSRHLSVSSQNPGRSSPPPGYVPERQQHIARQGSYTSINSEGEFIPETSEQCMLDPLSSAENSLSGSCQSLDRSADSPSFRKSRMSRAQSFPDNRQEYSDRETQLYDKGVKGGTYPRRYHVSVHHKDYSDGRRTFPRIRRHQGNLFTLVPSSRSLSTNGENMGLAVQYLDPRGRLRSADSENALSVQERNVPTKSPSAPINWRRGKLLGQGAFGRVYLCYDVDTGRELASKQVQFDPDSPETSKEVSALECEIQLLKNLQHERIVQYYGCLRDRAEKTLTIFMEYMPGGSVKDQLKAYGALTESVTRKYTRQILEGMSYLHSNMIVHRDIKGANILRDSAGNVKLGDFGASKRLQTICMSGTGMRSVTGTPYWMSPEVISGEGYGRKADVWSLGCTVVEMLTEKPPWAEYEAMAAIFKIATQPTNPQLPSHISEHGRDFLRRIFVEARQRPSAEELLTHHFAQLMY

[6] = biological target: Calcium-dependent protein kinase 1 (Plasmodium falciparum) (UniProt P62344); experiment: Inhibition of Plasmodium falciparum CDPK1 assessed as residual activity at 100 nM by KINOMEscan analysis relative to control
[7] = biological target: Serine/threonine-protein kinase pim-1 (Homo sapiens) (UniProt P11309); experiment: Inhibition of PIM1 (unknown origin) assessed as residual activity at 100 nM by KINOMEscan analysis relative to control
Sequence of Serine/threonine-protein kinase pim-1 (Homo sapiens) (P11309 whole entry, looked up): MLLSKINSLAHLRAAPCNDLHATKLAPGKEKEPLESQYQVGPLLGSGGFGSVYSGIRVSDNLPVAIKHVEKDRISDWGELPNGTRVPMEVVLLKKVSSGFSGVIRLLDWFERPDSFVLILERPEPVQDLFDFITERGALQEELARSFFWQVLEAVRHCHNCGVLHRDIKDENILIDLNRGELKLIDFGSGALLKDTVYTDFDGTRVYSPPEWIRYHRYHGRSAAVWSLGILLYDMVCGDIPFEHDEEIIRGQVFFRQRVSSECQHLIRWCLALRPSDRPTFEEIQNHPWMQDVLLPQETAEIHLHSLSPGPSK

[8] = biological target: Serine/threonine-protein kinase pim-2 (Homo sapiens) (UniProt Q9P1W9); experiment: Inhibition of PIM2 (unknown origin) assessed as residual activity at 100 nM by KINOMEscan analysis relative to control
Sequence of Serine/threonine-protein kinase pim-2 (Homo sapiens) (Q9P1W9 whole entry, looked up): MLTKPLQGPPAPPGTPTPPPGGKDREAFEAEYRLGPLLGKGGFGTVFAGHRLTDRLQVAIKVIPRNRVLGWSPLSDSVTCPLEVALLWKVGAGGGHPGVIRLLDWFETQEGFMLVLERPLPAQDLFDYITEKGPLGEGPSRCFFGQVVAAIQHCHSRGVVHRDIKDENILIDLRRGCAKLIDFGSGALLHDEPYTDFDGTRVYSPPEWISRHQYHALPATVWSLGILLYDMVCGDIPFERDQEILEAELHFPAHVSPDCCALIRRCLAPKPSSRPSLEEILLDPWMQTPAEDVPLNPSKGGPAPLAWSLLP

[9] = biological target: Protein kinase C delta type (Homo sapiens) (UniProt Q05655); experiment: Inhibition of PRKCD (unknown origin) assessed as residual activity at 100 nM by KINOMEscan analysis relative to control
[10] = biological target: Ribosomal protein S6 kinase alpha-3 (Homo sapiens) (UniProt P51812); experiment: Inhibition of C-terminal RSK2 kinetic domain 2 (unknown origin) assessed as residual activity at 100 nM by KINOMEscan analysis relative to control
Sequence of Ribosomal protein S6 kinase alpha-3 (Homo sapiens) (P51812 whole entry, the tested form may be a part): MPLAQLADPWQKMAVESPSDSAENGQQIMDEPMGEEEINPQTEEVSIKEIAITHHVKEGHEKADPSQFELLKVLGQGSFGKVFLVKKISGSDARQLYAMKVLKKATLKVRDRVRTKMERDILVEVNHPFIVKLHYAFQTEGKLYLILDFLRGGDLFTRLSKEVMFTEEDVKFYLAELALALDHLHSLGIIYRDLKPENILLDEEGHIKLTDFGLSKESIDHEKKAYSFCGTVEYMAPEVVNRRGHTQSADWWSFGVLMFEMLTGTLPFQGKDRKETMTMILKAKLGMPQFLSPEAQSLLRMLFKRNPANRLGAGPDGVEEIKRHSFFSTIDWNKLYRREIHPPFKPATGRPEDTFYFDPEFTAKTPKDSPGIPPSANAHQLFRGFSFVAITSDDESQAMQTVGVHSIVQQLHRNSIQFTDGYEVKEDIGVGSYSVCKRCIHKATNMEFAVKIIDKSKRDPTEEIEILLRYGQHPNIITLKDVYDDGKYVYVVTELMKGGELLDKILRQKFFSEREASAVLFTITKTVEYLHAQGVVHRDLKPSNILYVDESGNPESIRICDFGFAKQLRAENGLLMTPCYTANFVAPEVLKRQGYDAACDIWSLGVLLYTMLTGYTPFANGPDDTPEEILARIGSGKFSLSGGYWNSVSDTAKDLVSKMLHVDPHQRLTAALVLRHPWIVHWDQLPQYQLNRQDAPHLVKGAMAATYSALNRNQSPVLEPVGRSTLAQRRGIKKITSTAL

[11] = biological target: T2, Serine/threonine-protein kinase TAO1 (Homo sapiens) (UniProt Q7L7X3); experiment: Inhibition of TAOK1 (unknown origin) assessed as residual activity at 100 nM by KINOMEscan analysis relative to control
T2 sequence (whole entry): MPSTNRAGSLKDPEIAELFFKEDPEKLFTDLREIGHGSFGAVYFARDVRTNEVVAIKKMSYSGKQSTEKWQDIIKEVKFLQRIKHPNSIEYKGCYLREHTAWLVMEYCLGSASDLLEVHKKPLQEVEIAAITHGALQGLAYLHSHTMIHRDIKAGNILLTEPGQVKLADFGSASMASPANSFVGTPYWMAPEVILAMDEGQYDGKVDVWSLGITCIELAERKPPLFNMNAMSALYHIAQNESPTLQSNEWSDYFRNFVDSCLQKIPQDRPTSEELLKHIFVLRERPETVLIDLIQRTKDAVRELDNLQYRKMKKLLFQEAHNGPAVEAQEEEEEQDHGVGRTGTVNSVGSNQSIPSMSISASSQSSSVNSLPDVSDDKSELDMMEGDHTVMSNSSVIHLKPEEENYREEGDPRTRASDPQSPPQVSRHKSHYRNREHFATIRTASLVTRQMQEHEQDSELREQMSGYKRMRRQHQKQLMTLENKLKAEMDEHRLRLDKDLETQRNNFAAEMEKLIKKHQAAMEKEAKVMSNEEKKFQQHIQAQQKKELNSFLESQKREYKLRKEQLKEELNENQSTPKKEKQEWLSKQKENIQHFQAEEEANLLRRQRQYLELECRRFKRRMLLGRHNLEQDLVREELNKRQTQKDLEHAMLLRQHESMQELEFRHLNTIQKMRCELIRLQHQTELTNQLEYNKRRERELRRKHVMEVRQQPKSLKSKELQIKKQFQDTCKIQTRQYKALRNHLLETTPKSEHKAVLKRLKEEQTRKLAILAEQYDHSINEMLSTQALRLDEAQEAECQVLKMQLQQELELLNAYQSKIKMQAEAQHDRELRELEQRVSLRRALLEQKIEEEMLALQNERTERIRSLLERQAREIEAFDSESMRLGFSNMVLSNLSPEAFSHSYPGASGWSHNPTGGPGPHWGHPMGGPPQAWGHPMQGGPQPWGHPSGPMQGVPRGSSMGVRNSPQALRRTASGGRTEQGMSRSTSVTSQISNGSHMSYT

[12] = biological target: Tyrosine-protein kinase receptor Tie-1 (Homo sapiens) (UniProt P35590); experiment: Inhibition of TIE1 (unknown origin) assessed as residual activity at 100 nM by KINOMEscan analysis relative to control
[13] = biological target: Serine/threonine-protein kinase 32C (Homo sapiens) (UniProt Q86UX6); experiment: Inhibition of YANK3 (unknown origin) assessed as residual activity at 100 nM by KINOMEscan analysis relative to control
Sequence of Serine/threonine-protein kinase 32C (Homo sapiens) (Q86UX6 whole entry): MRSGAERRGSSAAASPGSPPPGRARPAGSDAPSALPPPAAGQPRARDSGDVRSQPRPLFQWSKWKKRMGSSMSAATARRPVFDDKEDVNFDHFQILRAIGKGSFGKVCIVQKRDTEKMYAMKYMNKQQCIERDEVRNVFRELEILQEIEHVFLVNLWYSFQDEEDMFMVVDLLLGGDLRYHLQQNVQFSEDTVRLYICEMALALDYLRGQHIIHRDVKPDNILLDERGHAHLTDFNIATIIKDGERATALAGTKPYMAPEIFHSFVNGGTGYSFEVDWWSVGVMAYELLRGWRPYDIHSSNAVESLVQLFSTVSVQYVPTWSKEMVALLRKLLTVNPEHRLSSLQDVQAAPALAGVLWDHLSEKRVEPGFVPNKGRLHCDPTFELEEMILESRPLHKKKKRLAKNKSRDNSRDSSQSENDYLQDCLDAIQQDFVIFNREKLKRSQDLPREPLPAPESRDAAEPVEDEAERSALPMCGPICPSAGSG

[14] = biological target: Serine/threonine-protein kinase MAK (Homo sapiens) (UniProt P20794); experiment: Inhibition of MAK (unknown origin) assessed as residual activity at 100 nM by KINOMEscan analysis relative to control
Sequence of Serine/threonine-protein kinase MAK (Homo sapiens) (P20794 whole entry, looked up): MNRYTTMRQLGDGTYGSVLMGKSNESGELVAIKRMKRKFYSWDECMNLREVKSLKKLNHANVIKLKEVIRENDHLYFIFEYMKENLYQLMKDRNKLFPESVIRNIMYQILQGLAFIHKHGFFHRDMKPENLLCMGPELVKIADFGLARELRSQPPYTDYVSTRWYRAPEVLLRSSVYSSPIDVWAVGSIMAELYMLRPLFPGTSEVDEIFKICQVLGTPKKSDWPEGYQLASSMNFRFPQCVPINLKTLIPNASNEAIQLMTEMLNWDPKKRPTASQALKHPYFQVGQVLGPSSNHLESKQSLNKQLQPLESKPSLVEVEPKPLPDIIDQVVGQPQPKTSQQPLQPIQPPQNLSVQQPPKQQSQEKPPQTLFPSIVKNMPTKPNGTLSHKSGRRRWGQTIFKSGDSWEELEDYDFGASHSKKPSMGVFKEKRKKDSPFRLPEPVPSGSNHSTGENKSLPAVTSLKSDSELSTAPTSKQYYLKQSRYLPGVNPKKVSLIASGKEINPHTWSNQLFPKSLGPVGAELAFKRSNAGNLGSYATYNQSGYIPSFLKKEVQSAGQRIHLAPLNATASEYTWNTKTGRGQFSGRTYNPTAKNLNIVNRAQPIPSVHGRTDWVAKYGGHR

[15] = biological target: 1-phosphatidylinositol 3-phosphate 5-kinase (Homo sapiens) (UniProt Q9Y2I7); experiment: Inhibition of PIKFYVE (unknown origin) assessed as residual activity at 1000 nM by KINOMEscan analysis relative to control
Sequence of 1-phosphatidylinositol 3-phosphate 5-kinase (Homo sapiens) (Q9Y2I7 whole entry): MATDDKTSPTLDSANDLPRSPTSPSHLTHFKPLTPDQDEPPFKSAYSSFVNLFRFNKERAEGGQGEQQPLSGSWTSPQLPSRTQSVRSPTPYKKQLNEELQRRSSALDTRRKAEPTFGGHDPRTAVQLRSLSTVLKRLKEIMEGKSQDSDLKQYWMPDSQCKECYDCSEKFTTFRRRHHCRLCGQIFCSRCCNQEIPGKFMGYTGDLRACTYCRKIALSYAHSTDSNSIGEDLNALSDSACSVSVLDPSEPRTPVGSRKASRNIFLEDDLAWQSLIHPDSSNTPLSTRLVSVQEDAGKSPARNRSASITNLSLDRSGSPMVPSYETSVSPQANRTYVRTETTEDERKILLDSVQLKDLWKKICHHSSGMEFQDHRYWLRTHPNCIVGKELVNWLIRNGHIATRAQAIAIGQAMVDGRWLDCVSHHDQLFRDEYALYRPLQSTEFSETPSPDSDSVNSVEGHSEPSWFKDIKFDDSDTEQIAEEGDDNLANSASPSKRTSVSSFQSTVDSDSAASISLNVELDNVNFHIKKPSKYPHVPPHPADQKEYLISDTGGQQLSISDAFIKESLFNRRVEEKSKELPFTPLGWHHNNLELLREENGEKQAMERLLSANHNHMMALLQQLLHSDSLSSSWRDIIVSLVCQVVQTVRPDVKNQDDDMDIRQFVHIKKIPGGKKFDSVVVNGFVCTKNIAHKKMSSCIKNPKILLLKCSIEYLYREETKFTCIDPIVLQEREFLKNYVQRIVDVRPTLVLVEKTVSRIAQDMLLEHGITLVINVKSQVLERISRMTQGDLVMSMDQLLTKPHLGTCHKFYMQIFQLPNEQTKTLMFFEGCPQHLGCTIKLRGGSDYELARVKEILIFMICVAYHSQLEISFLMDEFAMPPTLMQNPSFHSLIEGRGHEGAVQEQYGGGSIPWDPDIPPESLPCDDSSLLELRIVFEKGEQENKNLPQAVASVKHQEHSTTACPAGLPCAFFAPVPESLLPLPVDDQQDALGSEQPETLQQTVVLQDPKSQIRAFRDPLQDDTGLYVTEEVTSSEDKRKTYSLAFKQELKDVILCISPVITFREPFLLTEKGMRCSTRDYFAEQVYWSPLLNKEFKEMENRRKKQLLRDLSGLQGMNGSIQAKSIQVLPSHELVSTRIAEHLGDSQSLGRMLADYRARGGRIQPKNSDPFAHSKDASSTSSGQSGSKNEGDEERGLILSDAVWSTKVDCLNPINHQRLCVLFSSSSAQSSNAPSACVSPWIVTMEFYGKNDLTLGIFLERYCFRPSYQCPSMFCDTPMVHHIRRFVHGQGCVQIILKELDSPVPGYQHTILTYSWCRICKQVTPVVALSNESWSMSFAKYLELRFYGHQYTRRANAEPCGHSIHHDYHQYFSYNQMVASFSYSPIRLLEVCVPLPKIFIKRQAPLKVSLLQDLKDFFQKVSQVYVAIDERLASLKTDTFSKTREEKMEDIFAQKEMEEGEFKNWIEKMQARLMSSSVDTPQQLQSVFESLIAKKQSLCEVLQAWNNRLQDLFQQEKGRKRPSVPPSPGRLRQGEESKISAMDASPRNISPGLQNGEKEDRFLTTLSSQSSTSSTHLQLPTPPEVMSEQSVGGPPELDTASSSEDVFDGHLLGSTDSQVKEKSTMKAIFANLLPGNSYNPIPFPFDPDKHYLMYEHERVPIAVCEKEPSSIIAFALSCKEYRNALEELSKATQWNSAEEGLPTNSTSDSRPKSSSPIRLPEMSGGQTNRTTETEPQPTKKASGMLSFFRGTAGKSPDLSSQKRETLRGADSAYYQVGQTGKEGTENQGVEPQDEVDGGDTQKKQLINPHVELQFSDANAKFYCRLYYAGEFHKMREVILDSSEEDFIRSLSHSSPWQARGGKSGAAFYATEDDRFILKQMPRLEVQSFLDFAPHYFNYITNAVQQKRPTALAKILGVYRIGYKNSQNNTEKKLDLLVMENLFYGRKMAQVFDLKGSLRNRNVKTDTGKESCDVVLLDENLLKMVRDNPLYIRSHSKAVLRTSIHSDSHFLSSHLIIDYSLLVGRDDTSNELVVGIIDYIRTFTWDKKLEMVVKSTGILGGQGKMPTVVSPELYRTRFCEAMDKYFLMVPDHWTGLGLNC

Compound | Activity [1] | Activity [2] | Activity [3] | Activity [4] | Activity [5] | Activity [6] | Activity [7] | Activity [8] | Activity [9] | Activity [10] | Activity [11] | Activity [12] | Activity [13] | Activity [14] | Activity [15]
COc1cc2ncnc(N[C@H](C)c3cccc4ccccc34)c2cc1OC | 100% | 52% | 90% | 88% | 90% | 84% | 89% | 73% | 100% | 92% | 88% | 85% | 100% | 100% | 
COc1cc2nc(C)nc(N[C@H](C)c3cccc(-c4cn[nH]c4)c3)c2cc1OC |  |  |  |  |  |  |  |  |  |  |  |  |  |  | 68%
